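All cell lines were grown in 96-well plates and treated with compound for 48 hours. GI50 marks 50% less growth.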 The source made the active and inactive calls. Cut-off read from the data, not from the text of the source: active = GI50 up to about 1.1 µM and inactive = higher.
Key:
Assay in all cases: NCI tumour cell line growth inhibition, 48 h
[1] = tested on: DMS-114
[2] = tested on: DMS-273
[3] = tested on: DLD-1
[4] = tested on: KM-20L2
[5] = tested on: HOP-18
[6] = tested on: SNB-78
[7] = tested on: M19-MEL
[8] = tested on: XF498
[9] = tested on: RXF 631

Measured: GI50

COC1(C)C(=O)N2C1N(C(=O)OC(C)(C)C)CC2(C)C (configuration not stated)
inactive: [1] 42.8 µM | [2] > 100 µM | [3] > 100 µM | [4] > 100 µM | [5] > 100 µM | [6] > 100 µM | [7] > 100 µM

CCOC(=O)C(=C=Cc1cccs1)C(=O)c1ccccc1
inactive: [2] 17.4 µM | [3] 14.3 µM | [8] 16.2 µM | [5] 17.5 µM | [6] 18.3 µM | [7] 17.2 µM

C=CCc1cc(-c2cc(CC=C)c(O)c(CNC)c2)cc(CNC)c1O
inactive: [1] 16.1 µM | [3] 15.4 µM | [4] 16.6 µM | [9] 15.3 µM | [8] 16.3 µM | [6] 19.5 µM | [7] 14.2 µM

N#CC(C#N)=C1SCC(=O)CS1
inactive: [1] > 100 µM | [2] > 100 µM | [3] > 100 µM | [4] > 100 µM | [9] > 100 µM | [8] > 100 µM | [6] > 100 µM | [7] > 100 µM

O=C1CSC(/C(=C/c2ccccc2)c2nc3ccccc3[nH]2)=N1
inactive: [1] 32.3 µM | [3] > 100 µM | [4] > 100 µM | [8] 41.3 µM | [6] > 100 µM | [7] 65.9 µM

COC(=O)/C(C#N)=C1\CCC(C(=O)OC)N1C (configuration not stated)
inactive: [1] > 100 µM | [2] > 100 µM | [3] > 100 µM | [4] > 100 µM | [9] > 100 µM | [8] > 100 µM | [6] > 100 µM | [7] > 100 µM

CC1(C)OCC(CO)(Nc2nc(N3CC3)nc(N3CC3)n2)CO1
inactive: [1] 4.65 µM | [2] 3.04 µM | [3] 31.3 µM | [4] 18.6 µM | [8] 14.3 µM | [5] 27 µM | [6] 22.3 µM | [7] 13.9 µM

NC(=O)C(=O)n1ncc(Cl)c(Cl)c1=O
inactive: [1] 16.9 µM | [2] 25 µM | [3] 15.3 µM | [4] 28.7 µM | [8] 17 µM | [5] 20 µM | [6] 20.3 µM | [7] 24.7 µM

C=Cc1c(-c2ccccc2)cnc2[nH]c3ccccc3c12
inactive: [1] > 50 µM | [2] > 50 µM | [3] > 50 µM | [8] > 50 µM | [7] > 50 µM

CCCC(O)c1cn(-c2cccc(S(=O)(=O)O)c2)nn1 (configuration not stated)
inactive: [1] > 100 µM | [2] > 100 µM | [3] > 100 µM | [4] > 100 µM | [9] > 100 µM | [8] > 100 µM | [5] > 100 µM | [6] > 100 µM | [7] > 100 µM

C/C(=N/Nc1ccc([N+](=O)[O-])cc1[N+](=O)[O-])C(CC(C(=O)Nc1ccccc1C)/C(C)=N\Nc1ccc([N+](=O)[O-])cc1[N+](=O)[O-])C(=O)Nc1ccccc1C (configuration not stated)
inactive: [1] 6.87 µM | [2] 14.8 µM | [3] 28.4 µM | [4] 31 µM | [8] 14.5 µM | [5] 14.4 µM | [6] 16.4 µM | [7] 12.4 µM

N#CC1CC2(C(=O)C1=O)c1ccccc1-c1ccccc12 (configuration not stated)
inactive: [1] > 100 µM | [2] > 100 µM | [3] > 100 µM | [4] > 100 µM | [5] 82 µM | [7] > 100 µM

N#CCC(=O)N1CCCCCCC1
inactive: [1] 31.3 µM | [2] 35.7 µM | [3] > 100 µM | [4] > 100 µM | [6] > 100 µM

O=C(COC(=O)c1cccc2c(=O)c3ccccc3[nH]c12)Nc1ccc(Cl)cc1
inactive: [1] 58.6 µM | [3] 16.9 µM | [4] > 100 µM | [8] 46.8 µM | [5] > 100 µM | [6] 25.7 µM | [7] > 100 µM

COC(=O)C1=C(O)C(O)=C(C(=O)OC)CC1
inactive: [1] > 100 µM | [2] > 100 µM | [3] > 100 µM | [8] > 100 µM | [5] > 100 µM | [6] > 100 µM | [7] > 100 µM

CC(C)(C)NNC(=O)/C(=C/c1ccc([N+](=O)[O-])cc1)NC(=O)c1ccccc1
inactive: [1] 18.6 µM | [2] 33.7 µM | [3] 43.5 µM | [4] > 100 µM | [8] > 100 µM | [5] > 100 µM | [6] > 100 µM | [7] > 100 µM

COc1ccc(Nc2nc3c(N)cc(C(F)(F)F)cc3nc2-c2ccccc2)cc1
inactive: [1] 80.7 µM | [2] > 100 µM | [3] > 100 µM | [4] > 100 µM | [9] 44.6 µM | [8] 31.7 µM | [5] 36.7 µM | [6] 60.4 µM | [7] > 100 µM

Cc1cccc2c1CCC21OC(=O)c2c1ccc1ccccc21 (configuration not stated)
inactive: [1] 24.8 µM | [2] 32.7 µM | [3] 83.9 µM | [4] 53.8 µM | [9] 24.4 µM | [5] 42 µM | [7] 49 µM

COc1ccc(C(=O)C/C(=N/NC(N)=S)C(=O)Nc2ccccc2)cc1
inactive: [1] > 100 µM | [2] > 100 µM | [3] > 100 µM | [4] > 100 µM | [8] > 100 µM | [5] > 100 µM | [6] > 100 µM | [7] > 100 µM
